# Source: patent US10544143B2, “4-azaindole compounds” (BRISTOL-MYERS SQUIBB COMPANY, priority 2017, dated 2020)
# Like-named read-outs stand apart in the source and are kept apart here.
# Key:
# human TLR7 = human TLR7 (Homo sapiens (Human), UniProt Q9NYK1); assay: TLR7 inhibition reporter assay (HEK-Blue SEAP); assay type: cell-based; conditions: HEK-Blue human TLR7 cells, gardiquimod 7.5 μM
# human TLR8 = human TLR8 (Homo sapiens (Human), UniProt Q9NR97); assay: TLR8 inhibition reporter assay (HEK-Blue SEAP); conditions: R848 15.9 μM;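 note: SEAP driven by IFN-β minimal promoter carrying NF-κB and AP-1 sites, compounds dosed 0.05 nM to 50 µM for 22 h, inhibition scaled between agonist-plus-DMSO and reference-inhibitor wells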
# Sequence of human TLR8 (Q9NR97 27-1041): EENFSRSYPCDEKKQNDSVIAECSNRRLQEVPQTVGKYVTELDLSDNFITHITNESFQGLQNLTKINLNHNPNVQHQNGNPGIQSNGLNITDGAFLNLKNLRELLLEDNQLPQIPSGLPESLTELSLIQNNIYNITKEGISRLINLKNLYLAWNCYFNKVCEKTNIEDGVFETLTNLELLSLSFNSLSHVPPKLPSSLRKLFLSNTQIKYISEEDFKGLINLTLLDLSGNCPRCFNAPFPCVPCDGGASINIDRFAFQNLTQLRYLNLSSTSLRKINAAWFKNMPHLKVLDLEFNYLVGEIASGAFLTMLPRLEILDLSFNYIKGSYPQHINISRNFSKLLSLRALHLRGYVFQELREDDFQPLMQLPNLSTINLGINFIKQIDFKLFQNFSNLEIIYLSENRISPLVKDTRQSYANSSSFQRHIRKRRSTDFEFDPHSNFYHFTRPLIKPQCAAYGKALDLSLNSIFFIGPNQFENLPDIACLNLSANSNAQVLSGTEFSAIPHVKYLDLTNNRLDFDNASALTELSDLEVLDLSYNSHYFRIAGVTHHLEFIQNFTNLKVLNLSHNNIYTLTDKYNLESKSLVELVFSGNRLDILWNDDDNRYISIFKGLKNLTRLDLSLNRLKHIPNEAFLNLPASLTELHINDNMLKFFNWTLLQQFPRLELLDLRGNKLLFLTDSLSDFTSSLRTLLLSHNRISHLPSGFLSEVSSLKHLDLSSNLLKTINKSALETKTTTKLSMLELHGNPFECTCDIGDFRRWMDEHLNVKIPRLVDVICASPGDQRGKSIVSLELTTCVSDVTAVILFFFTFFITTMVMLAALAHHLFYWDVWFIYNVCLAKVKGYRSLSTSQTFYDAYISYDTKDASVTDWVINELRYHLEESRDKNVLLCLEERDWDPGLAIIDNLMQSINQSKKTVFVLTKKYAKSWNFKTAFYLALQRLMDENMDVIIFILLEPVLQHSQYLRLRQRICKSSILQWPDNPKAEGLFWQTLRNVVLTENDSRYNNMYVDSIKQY
# human TLR9 = human TLR9 (Homo sapiens (Human), UniProt Q9NR96); assay: TLR9 inhibition reporter assay (HEK-Blue SEAP); conditions: ODN2006 5 nM;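 note: SEAP driven by an IFN-β minimal promoter with NF-κB and AP-1 sites, read after 22 h, compounds dosed 0.05 nM–50 µM, inhibition scaled between agonist plus DMSO and reference-inhibitor wells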
# Sequence of human TLR9 (Q9NR96 26-1032): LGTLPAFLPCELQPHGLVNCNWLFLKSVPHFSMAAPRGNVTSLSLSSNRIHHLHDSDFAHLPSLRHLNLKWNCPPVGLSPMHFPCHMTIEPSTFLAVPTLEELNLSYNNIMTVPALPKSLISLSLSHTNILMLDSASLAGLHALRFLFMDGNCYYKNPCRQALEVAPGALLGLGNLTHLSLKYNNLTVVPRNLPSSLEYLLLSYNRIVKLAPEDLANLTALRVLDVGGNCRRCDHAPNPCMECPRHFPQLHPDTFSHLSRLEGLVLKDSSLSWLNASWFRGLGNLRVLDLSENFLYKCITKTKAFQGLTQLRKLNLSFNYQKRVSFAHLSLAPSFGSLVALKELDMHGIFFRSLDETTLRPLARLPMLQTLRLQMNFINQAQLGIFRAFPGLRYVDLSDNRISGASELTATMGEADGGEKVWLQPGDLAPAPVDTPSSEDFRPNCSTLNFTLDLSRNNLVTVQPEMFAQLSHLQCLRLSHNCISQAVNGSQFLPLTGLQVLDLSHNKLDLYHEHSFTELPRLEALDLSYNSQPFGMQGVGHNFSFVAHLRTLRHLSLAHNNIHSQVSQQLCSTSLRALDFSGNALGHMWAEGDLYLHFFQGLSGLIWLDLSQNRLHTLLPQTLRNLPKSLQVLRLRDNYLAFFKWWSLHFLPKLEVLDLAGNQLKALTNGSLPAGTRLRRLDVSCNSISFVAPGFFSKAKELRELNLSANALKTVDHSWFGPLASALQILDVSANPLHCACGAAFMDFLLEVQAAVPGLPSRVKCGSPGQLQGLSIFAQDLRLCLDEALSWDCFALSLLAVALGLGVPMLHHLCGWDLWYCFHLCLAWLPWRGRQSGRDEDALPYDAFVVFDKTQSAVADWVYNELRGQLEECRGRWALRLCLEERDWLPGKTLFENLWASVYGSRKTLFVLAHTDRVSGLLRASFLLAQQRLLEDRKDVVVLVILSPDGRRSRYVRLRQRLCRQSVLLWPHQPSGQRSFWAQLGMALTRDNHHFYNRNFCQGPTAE
# [1] = read-out: TLR8 IC50, HEK-Blue human TLR8 cells
# [2] = read-out: TLR9 IC50, HEK-Blue human TLR9 cells
# Sequence of human TLR7 (Q9NYK1 27-1049): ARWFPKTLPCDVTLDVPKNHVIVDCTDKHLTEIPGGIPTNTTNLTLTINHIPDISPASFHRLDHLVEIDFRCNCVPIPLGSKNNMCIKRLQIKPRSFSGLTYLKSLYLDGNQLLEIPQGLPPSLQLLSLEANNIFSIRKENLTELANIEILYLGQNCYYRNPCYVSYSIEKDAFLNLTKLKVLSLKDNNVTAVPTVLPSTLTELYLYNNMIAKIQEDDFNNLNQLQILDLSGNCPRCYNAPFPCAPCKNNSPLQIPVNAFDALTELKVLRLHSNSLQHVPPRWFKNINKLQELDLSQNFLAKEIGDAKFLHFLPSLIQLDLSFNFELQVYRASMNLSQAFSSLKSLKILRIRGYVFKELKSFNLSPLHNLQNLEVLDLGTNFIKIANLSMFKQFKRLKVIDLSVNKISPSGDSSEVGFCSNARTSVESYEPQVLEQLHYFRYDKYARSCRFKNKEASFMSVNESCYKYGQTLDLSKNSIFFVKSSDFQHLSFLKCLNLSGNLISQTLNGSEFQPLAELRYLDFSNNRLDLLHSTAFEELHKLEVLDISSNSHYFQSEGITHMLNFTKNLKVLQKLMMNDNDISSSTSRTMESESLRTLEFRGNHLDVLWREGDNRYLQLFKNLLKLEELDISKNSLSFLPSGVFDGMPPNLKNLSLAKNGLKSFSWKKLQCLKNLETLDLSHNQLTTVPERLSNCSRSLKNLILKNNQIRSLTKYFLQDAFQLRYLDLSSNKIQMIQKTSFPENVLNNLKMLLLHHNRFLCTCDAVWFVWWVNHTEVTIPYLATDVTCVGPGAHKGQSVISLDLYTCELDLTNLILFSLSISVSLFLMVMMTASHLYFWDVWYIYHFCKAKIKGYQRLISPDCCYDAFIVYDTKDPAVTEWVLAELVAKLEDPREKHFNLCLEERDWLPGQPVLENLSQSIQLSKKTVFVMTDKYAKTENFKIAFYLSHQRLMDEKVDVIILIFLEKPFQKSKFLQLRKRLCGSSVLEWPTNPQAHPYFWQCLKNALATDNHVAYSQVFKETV
Structure (SMILES),IC50 (human TLR7),"IC50 (human TLR8; TLR8 IC50, HEK-Blue human TLR8 cells)","IC50 (human TLR9; TLR9 IC50, HEK-Blue human TLR9 cells)",IC50 (human TLR8; [1]),IC50 (human TLR9; [2])
[2H]C1([2H])NC([2H])([2H])C([2H])([2H])N(c2ccc3[nH]c(-c4cn5ncnc5c(C)c4C)c(C(C)C)c3n2)C1([2H])[2H] [Example 857],0.65 nM,0.4 nM,4400 nM,,
Cc1c(-c2[nH]c3ccc(N4C[C@@H](C)N(C(=O)CCN(C)C)[C@@H](C)C4)nc3c2C(C)C)cn2ncnc2c1C [Example 860],0.3 nM,,,0.62 nM,5060 nM
Cc1c(-c2[nH]c3ccc(N4[C@H](C)CNC[C@H]4C)nc3c2C(C)C)cn2ncnc2c1C [Example 861],0.31 nM,,,4.2 nM,5010 nM
Cc1c(-c2[nH]c3ccc(N4C[C@@H](C)N(C(=O)CN(C)C)[C@@H](C)C4)nc3c2C(C)C)cn2ncnc2c1C [Example 862],0.29 nM,,,2.2 nM,7040 nM
Cc1c(-c2[nH]c3ccc(N4[C@H](C)CN(C(=O)CN(C)C)C[C@H]4C)nc3c2C(C)C)cn2ncnc2c1C [Example 863],0.52 nM,,,17 nM,6060 nM
Cc1c(-c2[nH]c3ccc(N4[C@H](C)CN(C(=O)CCN(C)C)C[C@H]4C)nc3c2C(C)C)cn2ncnc2c1C [Example 864],1.5 nM,,,12 nM,5690 nM
Cc1c(-c2[nH]c3ccc(N4[C@H](C)CN(C(C)C)C[C@H]4C)nc3c2C(C)C)cn2ncnc2c1C [Example 865],1.3 nM,,,72 nM,8890 nM
Cc1c(-c2[nH]c3ccc(N4[C@H](C)CN(CC(N)=O)C[C@H]4C)nc3c2C(C)C)cn2ncnc2c1C [Example 866],3.2 nM,,,74 nM,47600 nM
Cc1c(-c2[nH]c3ccc(N4C[C@@H](C)N(CC(N)=O)[C@@H](C)C4)nc3c2C(C)C)cn2ncnc2c1C [Example 867],4.5 nM,,,11 nM,> 50000 nM
Cc1c(-c2[nH]c3ccc(N4C[C@@H](C)N(CCCS(C)(=O)=O)[C@@H](C)C4)nc3c2C(C)C)cn2ncnc2c1C [Example 868],12 nM,,,6.1 nM,> 50000 nM
Cc1c(-c2[nH]c3ccc(N4[C@H](C)CN(CCCS(C)(=O)=O)C[C@H]4C)nc3c2C(C)C)cn2ncnc2c1C [Example 869],1.9 nM,,,34 nM,40300 nM
CCN(C)CC(=O)N1CCN(c2ccc3[nH]c(-c4cn5ncnc5c(C)c4C)c(C(C)C)c3n2)CC1 [Example 870],0.56 nM,,,3.3 nM,14400 nM
CCN(CC)CC(=O)N1CCN(c2ccc3[nH]c(-c4cn5ncnc5c(C)c4C)c(C(C)C)c3n2)CC1 [Example 871],1.6 nM,,,5.1 nM,12700 nM
Cc1c(-c2[nH]c3ccc(N4CCN(C(=O)CN(C)C(C)C)CC4)nc3c2C(C)C)cn2ncnc2c1C [Example 872],0.97 nM,,,3.8 nM,9540 nM
CCCN(C)CC(=O)N1CCN(c2ccc3[nH]c(-c4cn5ncnc5c(C)c4C)c(C(C)C)c3n2)CC1 [Example 873],3.1 nM,,,1.8 nM,12800 nM
CCCCN(C)CC(=O)N1CCN(c2ccc3[nH]c(-c4cn5ncnc5c(C)c4C)c(C(C)C)c3n2)CC1 [Example 874],1.2 nM,,,5.3 nM,15500 nM
Cc1c(-c2[nH]c3ccc(N4CCN(C(=O)CN(C)CC(C)C)CC4)nc3c2C(C)C)cn2ncnc2c1C [Example 875],6.6 nM,,,3.2 nM,40500 nM
CCCCN(CC)CC(=O)N1CCN(c2ccc3[nH]c(-c4cn5ncnc5c(C)c4C)c(C(C)C)c3n2)CC1 [Example 876],644 nM,,,517 nM,13300 nM
Cc1c(-c2[nH]c3ccc(N4CCN(C(=O)CNC(C)(C)C)CC4)nc3c2C(C)C)cn2ncnc2c1C [Example 877],1.5 nM,,,1.6 nM,12600 nM
Cc1c(-c2[nH]c3ccc(N4CCN(C(=O)CN(C)C(C)(C)C)CC4)nc3c2C(C)C)cn2ncnc2c1C [Example 878],0.48 nM,,,2.2 nM,9040 nM
CCN(CC(=O)N1CCN(c2ccc3[nH]c(-c4cn5ncnc5c(C)c4C)c(C(C)C)c3n2)CC1)C(C)C [Example 879],1 nM,,,3.4 nM,7550 nM
Cc1c(-c2[nH]c3ccc(N4CCN(C(=O)CN(CC(C)C)C(C)C)CC4)nc3c2C(C)C)cn2ncnc2c1C [Example 880],6.4 nM,,,30 nM,19300 nM
Cc1c(-c2[nH]c3ccc(N4CCN(C(=O)CN(CC(C)C)CC(C)C)CC4)nc3c2C(C)C)cn2ncnc2c1C [Example 881],25 nM,,,68 nM,43500 nM
CCCCN(CC(=O)N1CCN(c2ccc3[nH]c(-c4cn5ncnc5c(C)c4C)c(C(C)C)c3n2)CC1)C(C)C [Example 882],3.3 nM,,,11 nM,7760 nM

Structure (SMILES),IC50 (human TLR7),"IC50 (human TLR8; TLR8 IC50, HEK-Blue human TLR8 cells)","IC50 (human TLR9; TLR9 IC50, HEK-Blue human TLR9 cells)",IC50 (human TLR8; [1]),IC50 (human TLR9; [2])
Cc1c(-c2[nH]c3ccc(N4CCN(C(=O)CN(C(C)C)C(C)C)CC4)nc3c2C(C)C)cn2ncnc2c1C [Example 883],7.4 nM,,,2.3 nM,12500 nM
Cc1c(-c2[nH]c3ccc(N4C[C@@H](C)N[C@H](C)C4)nc3c2C(C)C)cn2ncnc2c1C [Example 884],0.9 nM,,,0.17 nM,6500 nM
Cc1c(-c2[nH]c3ccc(N4C[C@@H](C)N(C(=O)CN(C)C)[C@H](C)C4)nc3c2C(C)C)cn2ncnc2c1C [Example 885],1.6 nM,,,3.8 nM,7850 nM
Cc1c(-c2[nH]c3ccc(N4C[C@@H](C)N(C(=O)CCN(C)C)[C@H](C)C4)nc3c2C(C)C)cn2ncnc2c1C [Example 886],2.8 nM,,,1.7 nM,2570 nM
Cc1c(-c2[nH]c3ccc(N4CCN(C(=O)CN(C)C)[C@@H](C)C4)nc3c2C(C)C)cn2ncnc2c1C [Example 887],0.5 nM,,,0.68 nM,8120 nM
Cc1c(-c2[nH]c3ccc(N4C[C@@H](C)N(C(=O)CCN5CCC5)C[C@@H]4C)nc3c2C(C)C)cn2ncnc2c1C [Example 892],0.62 nM,,,1.4 nM,3280 nM
CCN(C)CC(=O)N1C[C@H](C)N(c2ccc3[nH]c(-c4cn5ncnc5c(C)c4C)c(C(C)C)c3n2)C[C@H]1C [Example 893],0.34 nM,,,0.74 nM,7440 nM
CCCN(C)CC(=O)N1C[C@H](C)N(c2ccc3[nH]c(-c4cn5ncnc5c(C)c4C)c(C(C)C)c3n2)C[C@H]1C [Example 894],0.37 nM,,,0.89 nM,10800 nM
CCN(CC)CC(=O)N1C[C@H](C)N(c2ccc3[nH]c(-c4cn5ncnc5c(C)c4C)c(C(C)C)c3n2)C[C@H]1C [Example 895],0.74 nM,,,1.1 nM,7930 nM
Cc1c(-c2[nH]c3ccc(N4C[C@@H](C)N(C(=O)CN5CC6(COC6)C5)C[C@@H]4C)nc3c2C(C)C)cn2ncnc2c1C [Example 896],0.69 nM,,,0.37 nM,8440 nM
CCN(C)CC(=O)N1CCN(c2ccc3[nH]c(-c4cn5ncnc5c(C)c4C)c(C(C)C)c3n2)C[C@@H]1C [Example 897],0.86 nM,,,1.5 nM,12000 nM
CCN(CC)CC(=O)N1CCN(c2ccc3[nH]c(-c4cn5ncnc5c(C)c4C)c(C(C)C)c3n2)C[C@@H]1C [Example 898],2.1 nM,,,3.2 nM,17300 nM
Cc1c(-c2[nH]c3ccc(N4CCN(C(=O)CN5CCCC5)[C@@H](C)C4)nc3c2C(C)C)cn2ncnc2c1C [Example 899],1 nM,,,1.7 nM,9780 nM
Cc1c(-c2[nH]c3ccc(N4CCN(C(=O)CN5CC6(COC6)C5)[C@@H](C)C4)nc3c2C(C)C)cn2ncnc2c1C [Example 900],1.1 nM,,,1.4 nM,15600 nM
Cc1c(-c2[nH]c3ccc(N4CCN(C(=O)CN5CC6(COC6)C5)C[C@@H]4C)nc3c2C(C)C)cn2ncnc2c1C [Example 901],0.72 nM,,,0.15 nM,13300 nM
CCN(CC)CC(=O)N1CCN(c2ccc3[nH]c(-c4cn5ncnc5c(C)c4C)c(C(C)C)c3n2)[C@@H](C)C1 [Example 902],1.1 nM,,,1.4 nM,15800 nM
Cc1c(-c2[nH]c3ccc(N4CCN(C(=O)CN(C(C)C)C(C)C)C[C@@H]4C)nc3c2C(C)C)cn2ncnc2c1C [Example 903],3 nM,,,4.1 nM,35200 nM
Cc1c(-c2[nH]c3ccc(N4CCN(C(=O)CN(C)C(C)(C)C)[C@@H](C)C4)nc3c2C(C)C)cn2ncnc2c1C [Example 904],1 nM,,,4.2 nM,14800 nM
Cc1c(-c2[nH]c3ccc(N4CCN(C(=O)CN(C)C(C)(C)C)C[C@@H]4C)nc3c2C(C)C)cn2ncnc2c1C [Example 905],0.51 nM,,,0.82 nM,12000 nM
CCN(C)CCC(=O)N1C[C@H](C)N(c2ccc3[nH]c(-c4cn5ncnc5c(C)c4C)c(C(C)C)c3n2)C[C@H]1C [Example 906],0.39 nM,,,0.67 nM,7800 nM
Cc1c(-c2[nH]c3ccc(N4C[C@@H](C)N(C(=O)CCN5CCOCC5)C[C@@H]4C)nc3c2C(C)C)cn2ncnc2c1C [Example 907],0.76 nM,,,0.45 nM,> 50000 nM
Cc1c(-c2[nH]c3ccc(N4C[C@@H](C)N(C(=O)CCN5CC6(COC6)C5)C[C@@H]4C)nc3c2C(C)C)cn2ncnc2c1C [Example 908],0.89 nM,,,0.26 nM,6460 nM
Cc1c(-c2[nH]c3ccc(N4C[C@@H](C)N(C(=O)CCN5CCC(F)C5)C[C@@H]4C)nc3c2C(C)C)cn2ncnc2c1C (stereo partly drawn) [Example 909],0.54 nM,,,0.91 nM,6710 nM
